Here are results for six compounds from patent EP4768484A1, “HETEROCYCLIC FUSED RING COMPOUND, AND COMPOSITION AND USE THEREOF” (Shenzhen TargetRx, Inc., priority 2023, dated 2025).

Each structure is given as a SMILES string.

Holding throughout (type): cell-based
One assay deals with T1, Ba/F3 BCR-ABL1 T315I (Homo sapiens, UniProt P00519+P11274, T315I).
T1 construct: BCR (N-terminal fusion partner of the oncoprotein); expressed in transfected cells; host or cells: Ba/F3 (lentiviral transduction, monoclonal line)
The assay can be described thus: Cell growth inhibitory activity assay (CellTiter-Glo), Ba/F3 BCR-ABL1 T315I cells. As to conditions: 72 h, CTG cell viability. The essentials: (§1)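 Ba/F3 lines stably transduced by lentivirus with WT or mutant BCR-ABL1, alongside untransduced parental Ba/F3, were seeded and incubated overnight at 37 °C, 5% CO2, then exposed to serially diluted compound for 72 h. Viability was read as ATP by CellTiter-Glo luminescence against a day-of-dosing T0 plate; IC50 from four-parameter nonlinear fit.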

For another assay, the system named is Ba/F3 parental cells. The assay can be described thus: Cell growth inhibitory activity assay (CellTiter-Glo), Ba/F3 parental cells. As to conditions: Mus musculus, BaF3, 72 h, CTG cell viability, read-out: IC50 Ba/F3 BCR-ABL1 Parental. The gist of the method: as §1
The target in the next assay is T2, Ba/F3 BCR-ABL1 WT (Homo sapiens, UniProt P00519+P11274).
T2 construct: BCR (N-terminal fusion partner of the oncoprotein); expressed in transfected cells; host or cells: Ba/F3 (lentiviral transduction, monoclonal line)
As to the kind of experiment: Cell growth inhibitory activity assay (CellTiter-Glo), Ba/F3 BCR-ABL1 WT cells. As to conditions: 72 h, CTG cell viability. The essentials:
as §1

Another assay deals with K562 cells. As to the kind of experiment: Cell growth inhibitory activity assay (CellTiter-Glo), K562 cells. The conditions noted are these: Homo sapiens, 72 h, CTG cell viability. The essentials: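 Growth inhibition of human K562 cells, sourced from Nanjing Kebai (CBP60529), was assessed with Promega's CellTiter-Glo kit, which measures viability through ATP quantification. Log-phase cells went into the inner wells of 96-well plates, with PBS in edge wells, incubated overnight at 37 °C and 5% CO2, then exposed to serially diluted compound for 72 h.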

For the compound `C[C@@H]1COCc2nc3cc(C(=O)Nc4ccc(OC(F)(F)Cl)cc4)cc(-c4cnc5c(c4)-c4nn(-c6ncc7ccn(C)c7n6)cc4C5)c3n21` [T-85, (R)-N-(4-(chlorodifluoromethoxy)phenyl)-4-methyl-6-(2-(7-methyl-7H-pyrrolo[2,3-d]pyrimidin-2-yl)-2,4-dihydropyrazolo[3',4':3,4]cyclopenta[1,2-b]pyridin-7-yl)-3,4-dihydro-1H-benzo[4,5]imidazo[2,1-c][1,4]oxazine-8-carboxamide], the IC50 was at most 5 nM against Ba/F3 BCR-ABL1 T315I, above 1000 nM in the assay on Ba/F3 parental cells, at most 5 nM on Ba/F3 BCR-ABL1 WT and at most 5 nM in the assay on K562 cells.
Regarding `C[C@@H]1COCc2nc3cc(C(=O)Nc4ccc(OC(F)(F)Cl)cc4)cc(-c4cnc5c(c4)-c4nn(-c6ncc7cccnc7n6)cc4C5)c3n21` [T-86, (R)-N-(4-(chlorodifluoromethoxy)phenyl)-4-methyl-6-(2-(pyrido[2,3-d]pyrimidin-2-yl)-2,4-dihydropyrazolo[3',4':3,4]cyclopenta[1,2-b]pyridin-7-yl)-3,4-dihydro-1H-benzo[4,5]imidazo[2,1-c][1,4]oxazine-8-carboxamide], the IC50 was at most 5 nM on Ba/F3 BCR-ABL1 T315I, above 1000 nM in the assay on Ba/F3 parental cells, at most 5 nM against Ba/F3 BCR-ABL1 WT and at most 5 nM with K562 cells.
As to `C[C@@H]1COCc2nc3cc(C(=O)Nc4ccc(OC(F)(F)Cl)cc4)cc(-c4cnc5c(c4)-c4nn(-c6nccc(-c7cccnc7)n6)cc4C5)c3n21` [T-87, (R)-N-(4-(chlorodifluoromethoxy)phenyl)-4-methyl-6-(2-(4-(pyridin-3-yl)pyrimidin-2-yl)-2,4-dihydropyrazolo[3',4':3,4]cyclopenta[1,2-b]pyridin-7-yl)-3,4-dihydro-1H-benzo[4,5]imidazo[2,1-c][1,4]oxazine-8-carboxamide], the IC50 at Ba/F3 BCR-ABL1 T315I is at most 5 nM; in the assay with Ba/F3 parental cells, above 1000 nM; against Ba/F3 BCR-ABL1 WT, at most 5 nM; with K562 cells it was at most 5 nM.
`C[C@@H]1COCc2nc3cc(C(=O)Nc4ccc(OC(F)(F)Cl)cc4)cc(-c4cnc5c(c4)-c4nn(-c6nccc(N7CCOCC7)n6)cc4C5)c3n21` [T-88, (R)-N-(4-(chlorodifluoromethoxy)phenyl)-4-methyl-6-(2-(4-morpholinopyrimidin-2-yl)-2,4-dihydropyrazolo[3',4':3,4]cyclopenta[1,2-b]pyridin-7-yl)-3,4-dihydro-1H-benzo[4,5]imidazo[2,1-c][1,4]oxazine-8-carboxamide]: the IC50 against Ba/F3 BCR-ABL1 T315I was at most 5 nM; in the assay with Ba/F3 parental cells it was above 1000 nM; on Ba/F3 BCR-ABL1 WT, at most 5 nM; in the assay with K562 cells, at most 5 nM.
With `C[C@@H]1COCc2nc3cc(C(=O)Nc4ccc(OC(F)(F)Cl)cc4)cc(-c4cnc5c(c4)-c4nn(-c6nccc(-c7ccc(F)cc7)n6)cc4C5)c3n21` [T-89, (R)-N-(4-(chlorodifluoromethoxy)phenyl)-6-(2-(4-(4-fluorophenyl)pyrimidin-2-yl)-2,4-dihydropyrazolo[3',4':3,4]cyclopenta[1,2-b]pyridin-7-yl)-4-methyl-3,4-dihydro-1H-benzo[4,5]imidazo[2,1-c][1,4]oxazine-8-carboxamide], the IC50 was at most 5 nM against Ba/F3 BCR-ABL1 T315I, above 1000 nM with Ba/F3 parental cells, at most 5 nM against Ba/F3 BCR-ABL1 WT and at most 5 nM with K562 cells.
`C[C@@H]1COCc2nc3cc(C(=O)Nc4ccc(OC(F)(F)Cl)cc4)cc(-c4cnc5c(c4)-c4nn(-c6nccc(-c7ccn(C)n7)n6)cc4C5)c3n21` [T-90, (R)-N-(4-(chlorodifluoromethoxy)phenyl)-4-methyl-6-(2-(4-(1-methyl-1H-oyrazol-3-yl)pyrimidin-2-yl)-2,4-dihydropyrazolo[3',4':3,4]cyclopenta[1,2-b]pyridin-7-yl)-3,4-dihydro-1H-benzo[4,5]imidazo[2,1-c][1,4]oxazine-8-carboxamide]: the IC50 was at most 5 nM at Ba/F3 BCR-ABL1 T315I, above 1000 nM in the assay on Ba/F3 parental cells, at most 5 nM on Ba/F3 BCR-ABL1 WT and at most 5 nM in the assay with K562 cells.
